# Measured values taken from article PMC6030209, “Structure-Activity Investigations and Optimisations of Non-metabolite Agonists for the Succinate Receptor 1” (Scientific Reports, 2018).
# pEC50: −log10 of the molar value. Read-outs that look alike come from different tables or passages of the source.
# Tests used:
# Assay type in all cases: cell-based
# hSUCNR1 = target: T1, hSUCNR1 (Homo sapiens, UniProt Q9BXA5); assay: IP3 turnover assay in hSUCNR1 transfected HEK-293 cells; details: for hSUCNR1 pEC50 / EC50: dose-response curves of induction of IP3 turnover in SUCNR1 transfected HEK cells (N = 3); for hSUCNR1 efficacy, %: efficacy relative to succinate (100%), HEK cells (N = 3); for hSUCNR1 efficacy, % / hSUCNR1 % @10^−4M: IP3 turnover; for hSUCNR1 % @10^−4M: relative to succinate (100%); for EC50: read-out: hSUCNR1 pEC50 (converted)
# T1 construct: FLAG (own knowledge: pCMV-Tag 2B is an N-terminal FLAG vector); host or cells: HEK-293, transient transfection with Lipofectamine-2000
# T1 sequence (Q9BXA5 1-334): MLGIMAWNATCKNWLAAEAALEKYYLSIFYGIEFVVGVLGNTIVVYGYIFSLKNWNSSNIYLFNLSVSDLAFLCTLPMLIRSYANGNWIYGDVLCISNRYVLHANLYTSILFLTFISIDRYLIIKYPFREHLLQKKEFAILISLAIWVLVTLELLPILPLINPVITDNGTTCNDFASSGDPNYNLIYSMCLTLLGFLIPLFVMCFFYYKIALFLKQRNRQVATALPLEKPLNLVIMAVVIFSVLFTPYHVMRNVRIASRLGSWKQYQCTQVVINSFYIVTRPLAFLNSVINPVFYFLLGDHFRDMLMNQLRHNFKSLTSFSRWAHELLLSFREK
# Method: (§1) Receptor constructs for mSUCNR1 and hSUCNR1 were bought from Origene and cloned into the eukaryotic expression vector pCMV-Tag(2B) (Stratagene).
# (§2) Transient transfection of the HEK-293 cells was done with Lipofectamine-2000 according to manufacturer’s protocol. Cells were supplemented with fresh medium after 5 h.
# (§3) 96-well plates were coated with poly-D-lysine and HEK-293 cells were plated (35.000 cells/well). Cells were transfected for 5 h the following day and subsequently incubated O/N with 0.5 μCi/mL myo[3H]inositol (Perkin Elmer) in 100 μL growth medium. On day 3 cells were washed with 200 µL HBSS/well (Gibco, Life Technologies) followed by a pre-incubation (30 min, 37 °C) with 100 µL HBSS supplemented with 10 mM LiCl. Cells were stimulated with ligand (120 min, 37 °C) and lysed with 50 µL 10 mM formic acid (30 min on ice). In a white 96 well plate 20 µL cell extracts and 80 µL 1:8 diluted YSi scintillation beads (Perkin Elmer) were mixed. The plate was spun down, and a Packard Top Count NXT counter recorded light emission (scintillation) after an 8 h delay.
# mSUCNR1 = target: T2, mSUCNR1 (Mus musculus, UniProt Q99MT6); assay: IP3 turnover assay in mSUCNR1 transfected HEK-293 cells; details: for mSUCNR1 pEC50 / EC50: dose-response curves of induction of IP3 turnover in SUCNR1 transfected HEK cells (N = 3); for mSUCNR1 efficacy, %: efficacy relative to succinate (100%), HEK cells (N = 3); for mSUCNR1 efficacy, % / mSUCNR1 % @10^−4M: IP3 turnover; for mSUCNR1 % @10^−4M: relative to succinate (100%); for EC50: read-out: mSUCNR1 pEC50 (converted)
# T2 construct: FLAG (own knowledge: pCMV-Tag 2B is an N-terminal FLAG vector); host or cells: HEK-293, transient transfection with Lipofectamine-2000
# T2 sequence (Q99MT6 1-317): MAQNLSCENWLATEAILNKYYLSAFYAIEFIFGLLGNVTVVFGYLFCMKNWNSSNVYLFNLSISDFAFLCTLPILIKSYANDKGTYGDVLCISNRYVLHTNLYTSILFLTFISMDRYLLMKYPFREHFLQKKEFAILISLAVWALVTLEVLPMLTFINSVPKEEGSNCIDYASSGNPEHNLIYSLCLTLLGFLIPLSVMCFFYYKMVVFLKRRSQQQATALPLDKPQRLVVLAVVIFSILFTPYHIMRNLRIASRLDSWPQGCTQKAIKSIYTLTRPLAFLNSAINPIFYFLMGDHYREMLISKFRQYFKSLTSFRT
# Method: as §1, §2, §3
# SUCNR1 = assay: Active/inactive grouping by EC50 threshold (ALiBERO training set, Table S1); details: active (1) / inactive (0), EC50 threshold of 10 µM
# Excerpt: In brief, starting from the homology model supported by mutagenesis data[4], ALiBERO introduced receptor flexibility via Normal Mode Analysis and Monte Carlo sampling, to generate a small subset of receptor models (pockets). […] For a list of all compounds used in the optimisation protocol, see Table S1. Receptor structures were then chosen based on their ability to discriminate actives from inactives in a retrospective virtual screening using the docking protocol and scoring function in ICM (Molsoft L.L.C., San Diego, CA, USA)[20], as measured by the normalised square root area under the curve (NSQ_AUC). […] The ALiBERO-optimised receptor ensemble was subsequently validated in a virtual ligand screening using an external test set with a higher active:decoy ratio (~1:50).
# ALiBERO is an iterative sampling-selection protocol for receptor optimisation that relies on the use of ligand information for selecting the best-performing receptor conformations. Homology models of the mouse SUCNR1 receptor were constructed according to Trauelsen et al.[4] and loaded into ICM (Molsoft L.L.C., San Diego, CA, USA). The structure was converted into an ICM object, thereby assigning protein atom types, optimising hydrogens and His, Pro, Asn, […] and Cys side-chain conformations. […] For a list of all compounds used in the optimisation protocol, see Table S1. ALiBERO was performed using the prepared receptor structure and ligand training set as input. Binding site residues were manually selected based on proximity to the position of MRS2500 in the superimposed structure of the P2Y1 receptor (PDB 4XNW). 100 elastic network normal mode analysis derived conformers were built in order to recreate backbone and side-chain flexibility (T = 300 K). Next, a flexible-ligand static-receptor small-scale virtual screening was performed on each of the receptor conformers, from which several pockets were selected for the following generation. The ligand and decoy molecules were docked into mSUCNR1, represented as pre-calculated potential grids and then sorted according to their ICM VLS scores. The maximum number of complementary pockets for each generation was set to 5 with a maximum of 10 generations. Receptor models were selected based on their combined screening performance, as determined by the normalised square root area under the curve, NSQ_AUC. After each round of virtual screening, an all-atom Monte Carlo side-chain refinement was performed to account for induced-by-ligand changes. NSQ_AUC values were calculated according to Katritch et al.[16].
# [1] = relative to the 4-methoxy compound 17
Structure (SMILES),"hSUCNR1 efficacy, % (hSUCNR1) [%]","mSUCNR1 efficacy, % (mSUCNR1) [%]",pEC50 (hSUCNR1),pEC50 (mSUCNR1),Active (SUCNR1),further results
"O=C(O)C[C@H](NC(=O)c1ccc(Br)o1)C(=O)O [Compound 4, (5-Bromofuran-2-carbonyl)-L-aspartic acid]",78.1 ± 7.5,95.8 ± 2.9,–,–,0 (inactive (0)),hSUCNR1 pEC50 (hSUCNR1): 4.53 ± 0.13; mSUCNR1 pEC50 (mSUCNR1): 4.93 ± 0.05
"O=C(O)C[C@H](NC(=O)c1ccccc1Cl)C(=O)O [Compound 5, (2-Chlorobenzoyl)-L-aspartic acid]",–,–,–,–,0 (inactive (0)),hSUCNR1 % @10^−4M (hSUCNR1): 22% @10^−4M; mSUCNR1 % @10^−4M (mSUCNR1): 13% @10^−4M
"O=C(O)C[C@H](NC(=O)c1cccc(I)c1)C(=O)O [Compound 6, (3-Iodobenzoyl)-L-aspartic acid]",–,–,–,–,0 (inactive (0)),hSUCNR1 % @10^−4M (hSUCNR1): 50% @10^−4M; mSUCNR1 % @10^−4M (mSUCNR1): 64% @10^−4M
"O=C(O)C[C@H](NC(=O)c1ccc(Br)cc1)C(=O)O [Compound 7, (4-Bromobenzoyl)-L-aspartic acid]",–,–,–,–,0 (inactive (0)),hSUCNR1 % @10^−4M (hSUCNR1): 8% @10^−4M; mSUCNR1 % @10^−4M (mSUCNR1): 15% @10^−4M
"O=C(O)C[C@H](NC(=O)Cc1ccc(Br)cc1)C(=O)O [Compound 8, (2-(4-Bromophenyl)acetyl)-L-aspartic acid]",–,–,–,–,0 (inactive (0)),hSUCNR1 % @10^−4M (hSUCNR1): 5% @10^−4M; mSUCNR1 % @10^−4M (mSUCNR1): 11% @10^−4M
"O=C(O)C[C@H](NC(=O)Cc1ccc(-c2ccc(F)cc2)cc1)C(=O)O [Compound 9, (2-(4′-Fluoro-[1,1′-biphenyl]-4-yl)acetyl)-L-aspartic acid]",–,–,–,–,0 (inactive (0)),hSUCNR1 % @10^−4M (hSUCNR1): 25% @10^−4M; mSUCNR1 % @10^−4M (mSUCNR1): 15% @10^−4M
"O=C(O)C[C@H](NC(=O)c1ccc(-c2ccccc2)o1)C(=O)O [Compound 10, (5-Phenylfuran-2-carbonyl)-L-aspartic acid]",81.6 ± 8.4,81.3 ± 3.6,5.29,6.16,1 (active (1)),–
"Cc1ccccc1-c1ccc(C(=O)N[C@@H](CC(=O)O)C(=O)O)o1 [Compound 11, (5-(o-Tolyl)furan-2-carbonyl)-L-aspartic acid]",94.7 ± 8.7,76.7 ± 3.1,5.27,6.13,1 (active (1)),–
"Cc1ccc(-c2ccc(C(=O)N[C@@H](CC(=O)O)C(=O)O)o2)cc1 [Compound 13, (5-(p-Tolyl)furan-2-carbonyl)-L-aspartic acid]",69.1 ± 3.9,73.2 ± 2.7,–,–,1 (active (1)),hSUCNR1 pEC50 (hSUCNR1): 6.33 ± 0.14; mSUCNR1 pEC50 (mSUCNR1): 6.83 ± 0.11
"O=C(O)C[C@H](NC(=O)c1cccc(-c2ccc(OCC(F)(F)F)cc2)n1)C(=O)O [Compound 32, (6-(4-(2,2,2-Trifluoroethoxy)phenyl)picolinoyl)-L-aspartic acid]",88.7 ± 6.1,68.1 ± 2.5,–,–,–,EC50 (hSUCNR1): 58.9 nM; EC50 (mSUCNR1): 100 nM
"CCCOc1ccc(-c2cccc(C(=O)N[C@@H](CC(=O)O)C(=O)O)n2)cc1 [Compound 33, (6-(4-Propoxyphenyl)picolinoyl)-L-aspartic acid]",66.4 ± 7.2,61.5 ± 3.8,–,–,–,EC50 (hSUCNR1): 58.9 nM; EC50 (mSUCNR1): 51.3 nM

# More lines, main results first:
"hSUCNR1 efficacy, % (hSUCNR1) [%]","mSUCNR1 efficacy, % (mSUCNR1) [%]",pEC50 (hSUCNR1),pEC50 (mSUCNR1),Structure (SMILES),Active (SUCNR1),further results
91.9 ± 5.3,81.6 ± 3.0,5.02,6.07,"Cc1cccc(-c2ccc(C(=O)N[C@@H](CC(=O)O)C(=O)O)o2)c1 [Compound 12, (5-(m-Tolyl)furan-2-carbonyl)-L-aspartic acid]",1 (active (1)),–
74.2 ± 11.8,79.6 ± 3.7,4.81,5.71,"O=C(O)C[C@H](NC(=O)c1ccc(-c2cccc(CO)c2)o1)C(=O)O [Compound 14, (5-(3-(Hydroxymethyl)phenyl)furan-2-carbonyl)-L-aspartic acid]",1 (active (1)),"decrease in potency (mSUCNR1; relative to the 3-methyl (12), orthologue not stated): 3 fold"
71.1 ± 4.2,74.8 ± 2.0,6.13,6.82,"O=C(O)C[C@H](NC(=O)c1ccc(-c2ccc(O)cc2)o1)C(=O)O [Compound 15, (5-(4-Hydroxyphenyl)furan-2-carbonyl)-L-aspartic acid]",1 (active (1)),–
103.8 ± 7.9,78.1 ± 3.1,5.29,6.14,"COc1ccccc1-c1ccc(C(=O)N[C@@H](CC(=O)O)C(=O)O)o1 [Compound 16, (5-(2-Methoxyphenyl)furan-2-carbonyl)-L-aspartic acid]",1 (active (1)),–
85.3 ± 4.5,84.2 ± 1.8,6.41,7.39,"COc1ccc(-c2ccc(C(=O)N[C@@H](CC(=O)O)C(=O)O)o2)cc1 [Compound 17, (5-(4-Methoxyphenyl)furan-2-carbonyl)-L-aspartic acid]",1 (active (1)),–
81.0 ± 7.2,80.6 ± 4.6,6.55,6.81,"O=C(O)C[C@H](NC(=O)c1ccc(-c2ccc(C(F)(F)F)cc2)o1)C(=O)O [Compound 18, (5-(4-(Trifluoromethyl)phenyl)furan-2-carbonyl)-L-aspartic acid]",1 (active (1)),–
72.1 ± 3.2,76.0 ± 1.5,6.39,6.79,"N#Cc1ccc(-c2ccc(C(=O)N[C@@H](CC(=O)O)C(=O)O)o2)cc1 [Compound 19, (5-(4-Cyanophenyl)furan-2-carbonyl)-L-aspartic acid]",1 (active (1)),–
61.7 ± 3.6,69.7 ± 2.8,6.99,6.72,"O=C(O)C[C@H](NC(=O)c1ccc(-c2ccc(OC(F)(F)F)cc2)o1)C(=O)O [Compound 20, (5-(4-(Trifluoromethoxy)phenyl)furan-2-carbonyl)-L-aspartic acid]",1 (active (1)),increase in potency on hSUCNR1 (hSUCNR1; [1]): 2 fold; decrease in potency on mSUCNR1 (mSUCNR1; [1]): > 4 fold
